The text below walks through data of patent US20220279826A1, “OFF-FLAVOR SUPPRESSING AGENT” (AJINOMOTO CO., INC., priority 2019, published 2022).

A short description of test [1]: Sensory evaluation of off-taste suppressing effect in 0.8 wt % potassium chloride aqueous solution (Experimental Examples 1 and 2). As to the method:
Each compound shown in the following Tables 1 to 13 was added to a 0.8 wt % potassium chloride aqueous solution at the concentration (addition concentration) shown in the following Tables 1 to 13 to prepare each evaluation sample.
Based on the following evaluation criteria, a panel of two experts determined by consensus the intensity of off-tastes (bitter taste, metallic taste, harsh taste, astringent taste) derived from potassium chloride in each evaluation sample, by reference to each potassium chloride aqueous solution adjusted to 0.8 wt %, 0.75 wt %, 0.7 wt %, or 0.65 wt %.
−: intensity of the same level as potassium chloride aqueous solution with potassium chloride concentration of not less than 0.8 wt %
+: intensity of the same level as potassium chloride aqueous solution with potassium chloride concentration of not less than 0.75 wt % and less than 0.8 wt %
++: intensity of the same level as potassium chloride aqueous solution with potassium chloride concentration of not less than 0.7 wt % and less than 0.75 wt %
+++: intensity of the same level as potassium chloride aqueous solution with potassium chloride concentration of not less than 0.65 wt % and less than 0.7 wt %
Each compound shown in the following Table 14 was added to a 0.8 wt % potassium chloride aqueous solution at the concentration (addition concentration) shown in the following Table 14 to prepare each evaluation sample.

The nature of test [2]: Sensory evaluation in 0.007 wt % sucralose aqueous solution (Experimental Example 11). Conditions: Table 25. The protocol:
Each compound shown in the following Table 25 was added to a 0.007 wt % sucralose aqueous solution (an aqueous solution prepared by dissolving sucralose (0.007 parts by weight) in water (99.993 parts by weight)) so as to achieve the concentration (addition concentration) shown in the following Table 25 to prepare each evaluation sample.
Based on the following evaluation criteria, a panel of three experts determined by consensus the intensity of off-tastes (bitter taste, harsh taste, metallic taste) derived from sucralose in each evaluation sample, by comparison with a 0.007 wt % sucralose aqueous solution without addition of any compound (negative control).

Test [3] is described as follows: Sensory evaluation in sodium acetate aqueous solution (Experimental Example 18). Conditions: Table 33. The protocol: Each compound shown in the following Table 33 was added to an aqueous solution prepared by dissolving sodium acetate (1 part by weight) and acetic acid (0.3 parts by weight) in water (98.7 parts by weight) (hereinafter at times referred to as sodium acetate aqueous solution) so as to achieve the concentration (addition concentration) shown in the following Table 33 to prepare each evaluation sample.
Based on the following evaluation criteria, a panel of four experts determined by consensus the intensity of off-tastes (bitter taste, harsh taste, astringent taste) derived from sodium acetate in each evaluation sample, by comparison with a sodium acetate aqueous solution without addition of any compound (negative control).

Test [4] can be described thus: Sensory evaluation in soy protein aqueous solution (Experimental Example 13). Particulars: Table 27. As to the method: Each compound shown in the following Table 27 was added to an aqueous solution prepared by dissolving powdered soy protein (4 parts by weight) in water (96 parts by weight) (hereinafter at times referred to as soy protein aqueous solution) so as to achieve the concentration (addition concentration) shown in the following Table 27 to prepare each evaluation sample. Here, the powdered soy protein manufactured by FUJI OIL CO., LTD. was used.
Based on the following evaluation criteria, a panel of four experts determined by consensus the intensity of off-tastes (bitter taste, harsh taste, astringent taste) derived from soy protein in each evaluation sample, by comparison with a soy protein aqueous solution without addition of any compound (negative control).

Test [5] in a line: Sensory evaluation in 1 wt % methyl cellulose aqueous solution (Experimental Example 20). Particulars: Table 35. The protocol: Each compound shown in the following Table 35 was added to a 1 wt % methyl cellulose aqueous solution (aqueous solution prepared by dissolving methyl cellulose (1 part by weight) in water (99 parts by weight)) so as to achieve the concentration (addition concentration) shown in the following Table 35 to prepare each evaluation sample. Here, the methyl cellulose manufactured by Unitec Foods Co., Ltd. was used.
Based on the following evaluation criteria, a panel of four experts determined by consensus the intensity of off-tastes (bitter taste, harsh taste, astringent taste) derived from methyl cellulose in each evaluation sample, by comparison with a 1 wt % methyl cellulose aqueous solution without addition of any compound (negative control).

Test [6] is described as follows: Sensory evaluation in chicken broth solution with potassium chloride (Experimental Example 3). Conditions: chicken broth solution with 0.8 wt % potassium chloride; addition concentration 100 ppb (12.5 weight ppm with respect to potassium chloride). The protocol:
As shown in the following (1) to (3) below, 0.8 wt % of potassium chloride was added to a food base powder corresponding to 0.5 wt % of sodium chloride to prepare each base solution having an off-taste derived from potassium chloride.
Potassium chloride (0.8 g) was added to a commercially available powdered chicken broth mix (manufactured by Ajinomoto Co., Inc., trade name “Marutorigara Soup”) (1.0 g), hot water (98.2 g) was added to dissolve the mixture to prepare a base solution (chicken broth soup solution).
Each compound shown in the following Tables 15 to 17 was added to each base solution (ramen noodle soup solution, chicken broth solution, potage solution) so as to achieve the concentration (addition concentration) shown in the following Tables 15 to 17 to prepare each evaluation sample.
By a method similar to that in Experimental Example 1, a panel of two experts determined the intensity of off-tastes (bitter taste, metallic taste, harsh taste, astringent taste) derived from potassium chloride in each evaluation sample.

A short description of test [7]: Sensory evaluation in BCAA sweetness aqueous solution (Experimental Example 6). The arrangement: key to off-taste suppressing effect: ±: no change from negative control; −: slightly suppressed compared to negative control; −−: suppressed compared to negative control (same level of intensity as BCAA sweetness aqueous solution in which total concentration of leucine, isoleucine, and valine (weight ratio=2:1:1) exceeds 0.8 wt % and is not more than 0.9 wt %); −−−: considerably suppressed compared to negative control (same level of intensity as BCAA sweetness aqueous solution in which total concentration of leucine, isoleucine, and valine (weight ratio=2:1:1) is not more than 0.8 wt %). As to the method:
Each compound shown in the following Table 20 was added to an aqueous solution prepared by dissolving leucine (0.50 parts by weight), isoleucine (0.25 parts by weight), valine (0.25 parts by weight), and granulated sugar (4 parts by weight) in ion exchange water (95 parts by weight) (hereinafter at times referred to as BCAA sweetness aqueous solution) so as to achieve the concentration (addition concentration) shown in the following Table 20 to prepare each evaluation sample.
Based on the following evaluation criteria, a panel of four experts determined by consensus the intensity of off-tastes (bitter taste, harsh taste) derived from amino acid in each evaluation sample, by comparison with a BCAA sweetness aqueous solution without addition of any compound (negative control).

Where [8] appears, read: 0.8 wt % potassium chloride aqueous solution, addition concentration 100 weight ppb (12.5 weight ppm with respect to potassium chloride).
The mark [9] stands for this setting: 0.8 wt % potassium chloride aqueous solution, addition concentration 500 weight ppb (62.5 weight ppm with respect to potassium chloride).
The mark [10] stands for this setting: potassium chloride aqueous solutions, Tables 1 to 14.
The mark [11] stands for this setting: 0.8 wt % potassium chloride aqueous solution, addition concentration 50 weight ppb (6.25 weight ppm with respect to potassium chloride).

Regarding `CC(=O)c1ccc(C)o1` [2-acetyl-5-methylfuran], the off-taste suppressing effect entry is “+ (intensity of the same level as potassium chloride aqueous solution with potassium chloride concentration of not less than 0.75 wt % and less than 0.8 wt %)” in test [1] (setting [8]); “++ (intensity of the same level as potassium chloride aqueous solution with potassium chloride concentration of not less than 0.7 wt % and less than 0.75 wt %)” in test [1] (setting [9]); “+ (intensity of the same level as potassium chloride aqueous solution with potassium chloride concentration of not less than 0.75 wt % and less than 0.8 wt %)” in test [1] (0.8 wt % potassium chloride aqueous solution, addition concentration 1000 weight ppb (125 weight ppm with respect to potassium chloride)); “+ (intensity of the same level as potassium chloride aqueous solution with potassium chloride concentration of not less than 0.75 wt % and less than 0.8 wt %)” in test [1] (0.8 wt % potassium chloride aqueous solution, addition concentration 2000 weight ppb (250 weight ppm with respect to potassium chloride)). The “intensity of off-tastes (bitter taste, metallic taste, harsh taste, astringent taste) derived from potassium chloride” value (“intensity … from potassium chloride” below) in test [1] (setting [10]) is recorded as “decreased”. In addition, the “intensity of off-tastes (bitter taste, harsh taste, metallic taste) derived from sucralose” value (shortened to “intensity of off-tastes … from sucralose”) in test [2] is listed as “suppressed”. Moreover, the “intensity of off-tastes (bitter taste, harsh taste, astringent taste) derived from sodium acetate” value (from here on “intensity of off-tastes … from sodium acetate”) in test [3] was “suppressed”. In addition, the “intensity of off-tastes (bitter taste, harsh taste, astringent taste) derived from soy protein” value (from here on “intensity of off-tastes … from soy protein”) in test [4] is reported as “suppressed”. For the same molecule, in test [5], the “intensity of off-tastes (bitter taste, harsh taste, astringent taste) derived from methyl cellulose” value (shortened to “intensity of off-tastes … from methyl cellulose”) is recorded as “suppressed”.
Take `CC(=O)c1ccco1` [2-acetylfuran]: the off-taste suppressing effect entry in test [1] (setting [11]) is “++ (intensity of the same level as potassium chloride aqueous solution with potassium chloride concentration of not less than 0.7 wt % and less than 0.75 wt %)”; in test [1] (setting [8]) it was “+++ (intensity of the same level as potassium chloride aqueous solution with potassium chloride concentration of not less than 0.65 wt % and less than 0.7 wt %)”; in test [1] (setting [9]), “+ (intensity of the same level as potassium chloride aqueous solution with potassium chloride concentration of not less than 0.75 wt % and less than 0.8 wt %)”; in test [1] (in words, potassium chloride aqueous solutions, Tables 1 to 14), “high”; in test [6] it was “++ (intensity of the same level as potassium chloride aqueous solution with potassium chloride concentration of not less than 0.7 wt % and less than 0.75 wt %)”; in test [7] (addition concentration 10 weight ppb (1 weight ppm with respect to amino acid)), “−”. Besides, the off-taste suppressing effect entry in test [7] (addition concentration 50 weight ppb (5 weight ppm with respect to amino acid)) is “−− (suppressed compared to negative control (same level of intensity as BCAA sweetness aqueous solution in which total concentration of leucine, isoleucine, and valine (weight ratio=2:1:1) exceeds 0.8 wt % and is not more than 0.9 wt %))”; in test [7] (addition concentration 100 weight ppb (10 weight ppm with respect to amino acid)) it was “−− (suppressed compared to negative control (same level of intensity as BCAA sweetness aqueous solution in which total concentration of leucine, isoleucine, and valine (weight ratio=2:1:1) exceeds 0.8 wt % and is not more than 0.9 wt %))”; in test [7] (addition concentration 200 weight ppb (20 weight ppm with respect to amino acid)) it was “−− (suppressed compared to negative control (same level of intensity as BCAA sweetness aqueous solution in which total concentration of leucine, isoleucine, and valine (weight ratio=2:1:1) exceeds 0.8 wt % and is not more than 0.9 wt %))”. Moreover, the “intensity … from potassium chloride” value in test [1] (setting [10]) is reported as “decreased”. Further, in test [2], the “intensity of off-tastes … from sucralose” value is “suppressed”. Besides, the “intensity of off-tastes … from sodium acetate” value in test [3] is recorded as “suppressed”. Further, the “intensity of off-tastes … from soy protein” value in test [4] is “suppressed”. For the same molecule, the “intensity of off-tastes … from methyl cellulose” value in test [5] is on record as “suppressed”. For the same molecule, the “intensity of off-tastes (bitter taste, harsh taste) derived from amino acid (branched chain amino acid)” value in test [7] (summary of Table 20) is “suppressed”.
Consider `CC1OCCC1=O` (stereo not drawn) [2-methyltetrahydrofuran-3-one], for which the off-taste suppressing effect result is “++ (intensity of the same level as potassium chloride aqueous solution with potassium chloride concentration of not less than 0.7 wt % and less than 0.75 wt %)” in test [1] (0.8 wt % potassium chloride aqueous solution, addition concentration 10 weight ppb (1.25 weight ppm with respect to potassium chloride)); “++ (intensity of the same level as potassium chloride aqueous solution with potassium chloride concentration of not less than 0.7 wt % and less than 0.75 wt %)” in test [1] (setting [11]); “++ (intensity of the same level as potassium chloride aqueous solution with potassium chloride concentration of not less than 0.7 wt % and less than 0.75 wt %)” in test [1] (setting [8]); “+ (intensity of the same level as potassium chloride aqueous solution with potassium chloride concentration of not less than 0.75 wt % and less than 0.8 wt %)” in test [1] (setting [9]). Besides, the “intensity … from potassium chloride” value in test [1] (setting [10]) is listed as “decreased”. The “intensity of off-tastes … from sucralose” value in test [2] is recorded as “suppressed”. In addition, the “intensity of off-tastes … from sodium acetate” value in test [3] is “suppressed”. Moreover, in test [4], the “intensity of off-tastes … from soy protein” value is recorded as “suppressed”. In test [5], the “intensity of off-tastes … from methyl cellulose” value is given as “suppressed”.
